Measured values reported in ChEMBL document CHEMBL1151044, “5,7-Diphenyl-3-ureidohexahydroazepin-2-ones as Cholecystokinin-B receptor ligands” (Bioorg Med Chem Lett, 1994).

Molecular target: T1, Cholecystokinin receptor type A (Cavia porcellus, UniProt Q63931)
T1 sequence (Q63931 whole entry): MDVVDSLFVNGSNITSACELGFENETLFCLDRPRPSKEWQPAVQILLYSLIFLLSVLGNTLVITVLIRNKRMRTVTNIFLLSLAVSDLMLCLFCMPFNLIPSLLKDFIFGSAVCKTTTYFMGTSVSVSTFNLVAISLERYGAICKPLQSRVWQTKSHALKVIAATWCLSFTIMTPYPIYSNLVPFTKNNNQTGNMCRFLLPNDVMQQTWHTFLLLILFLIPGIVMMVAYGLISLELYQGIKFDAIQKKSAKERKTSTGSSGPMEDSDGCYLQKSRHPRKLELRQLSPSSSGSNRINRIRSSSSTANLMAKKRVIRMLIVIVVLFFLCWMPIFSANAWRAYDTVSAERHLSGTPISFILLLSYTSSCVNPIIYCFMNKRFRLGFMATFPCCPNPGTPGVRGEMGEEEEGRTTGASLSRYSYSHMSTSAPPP
Test: Inhibitory activity against cholecystokinin-A (CCK-A) receptor in pancreas of guinea pig.

| SMILES | IC50 |
| --- | --- |
| Cc1cccc(NC(=O)N[C@@H]2C[C@H](c3ccccc3)C[C@H](c3cccc(C)c3)N(CC(=O)NC(C)(C)C)C2=O)c1 | 1.6 nM |
| Cc1cccc(NC(=O)N[C@@H]2C[C@H](c3cccc(C)c3)C[C@H](c3ccccc3)N(CC(=O)NC(C)(C)C)C2=O)c1 | 1.3 nM |
| Cc1cccc(NC(=O)N[C@@H]2C[C@H](c3ccccc3C)C[C@H](c3ccccc3)N(CC(=O)Nc3ccc(Cl)cc3)C2=O)c1 | > 10 nM |
| Cc1cccc(NC(=O)N[C@@H]2C[C@H](c3ccccc3C)C[C@H](c3ccccc3)N(CC(=O)Nc3ccccc3C)C2=O)c1 | 1.1 nM |
| Cc1ccc(NC(=O)CN2C(=O)[C@H](NC(=O)Nc3cccc(C)c3)C[C@H](c3ccccc3C)C[C@@H]2c2ccccc2)cc1 | > 10 nM |
| Cc1ccc([C@@H]2C[C@H](c3ccccc3)N(CC(=O)NC(C)(C)C)C(=O)[C@H](NC(=O)Nc3cccc(C)c3)C2)cc1 | 1.1 nM |
| Cc1cccc(NC(=O)N[C@@H]2C[C@H](c3ccccc3C)C[C@H](c3ccccc3)N(CC(=O)NC(C)C)C2=O)c1 | 560 nM |
| Cc1cccc(NC(=O)N[C@H]2C[C@H](c3ccccc3)C[C@H](c3ccccc3)N(CC(=O)NC(C)(C)C)C2=O)c1 | 10 nM |
| Cc1cccc(NC(=O)N[C@@H]2C[C@H](c3ccccc3C)C[C@H](c3ccccc3)N(CC(=O)Nc3ccccc3Cl)C2=O)c1 | 1.1 nM |
| Cc1cccc(NC(=O)N[C@@H]2C[C@H](c3ccccc3C)C[C@H](c3ccccc3)N(CC(=O)NC(C(C)(C)C)C(C)(C)C)C2=O)c1 | > 10 nM |
| CCc1cccc(NC(=O)N[C@@H]2C[C@H](c3ccccc3C)C[C@H](c3ccccc3)N(CC(=O)NC3(C)CCCCC3)C2=O)c1 | > 10 nM |
| Cc1cccc(NC(=O)N[C@@H]2C[C@H](c3ccccc3)C[C@H](c3ccc(F)cc3)N(CC(=O)NC(C)(C)C)C2=O)c1 | 2.8 nM |
| Cc1cccc(NC(=O)N[C@@H]2C[C@H](c3ccccc3C)C[C@H](c3ccccc3)N(CC(=O)Nc3cccc(Cl)c3)C2=O)c1 | > 10 nM |
| Cc1ccc([C@H]2C[C@@H](c3ccccc3)C[C@@H](NC(=O)Nc3cccc(C)c3)C(=O)N2CC(=O)NC(C)(C)C)cc1 | 970 nM |
| COc1ccccc1[C@@H]1C[C@H](c2ccccc2)N(CC(=O)NC(C)(C)C)C(=O)[C@H](NC(=O)Nc2cccc(C)c2)C1 | 750 nM |
| Cc1ccccc1[C@@H]1C[C@H](c2ccccc2)N(CC(=O)NC(C)(C)C)C(=O)[C@H](NC(=O)Nc2ccc(Cl)cc2)C1 | > 10 nM |
| Cc1cccc(NC(=O)N[C@@H]2C[C@H](c3ccccc3C)C[C@H](c3ccccc3)N(CC(=O)NC(C)(C)C)C2=O)c1 (stereo in doubt; 10i) | 580 nM |
| Cc1cccc(NC(=O)N[C@@H]2C[C@H](c3ccccc3C)C[C@H](c3ccccc3)N(CC(=O)NC(C)(C)C)C2=O)c1 (stereo in doubt; (-)-10i) | 930 nM |

More lines, now with the values ahead:

| IC50 | SMILES |
| --- | --- |
| 2500 nM | Cc1ccccc1[C@@H]1C[C@H](c2ccccc2)N(CC(=O)NC(C)(C)C)C(=O)[C@H](NC(=O)Nc2cccc(C(F)(F)F)c2)C1 |
| > 10 nM | Cc1ccccc1[C@@H]1C[C@H](c2ccccc2)N(CC(=O)NC(C)(C)C)C(=O)[C@H](NC(=O)Nc2cccc([N+](=O)[O-])c2)C1 |
| 1 nM | Cc1cccc(NC(=O)N[C@@H]2C[C@H](c3ccccc3)C[C@H](c3cccc(F)c3)N(CC(=O)NC(C)(C)C)C2=O)c1 |
| 1.8 nM | Cc1ccccc1[C@@H]1C[C@H](c2ccccc2)N(CC(=O)NC(C)(C)C)C(=O)[C@H](NC(=O)Nc2cccc(F)c2)C1 |
| 823 nM | Cc1cccc(NC(=O)N[C@@H]2C[C@H](c3ccccc3)C[C@H](c3ccccc3)N(CC(=O)NC(C)(C)C)C2=O)c1 |
| 2.2 nM | COc1ccc(NC(=O)N[C@@H]2C[C@H](c3ccccc3C)C[C@H](c3ccccc3)N(CC(=O)NC(C)(C)C)C2=O)cc1 |
| 4.4 nM | Cc1cccc(NC(=O)N[C@@H]2C[C@H](c3ccccc3C)C[C@H](c3ccccc3)N(CC(=O)NC3(C)CCCCC3)C2=O)c1 |
| 700 nM | Cc1cccc(NC(=O)N[C@@H]2C[C@H](c3ccc(F)cc3)C[C@H](c3ccccc3)N(CC(=O)NC(C)(C)C)C2=O)c1 |
| 810 nM | CCc1ccccc1[C@@H]1C[C@H](c2ccccc2)N(CC(=O)NC(C)(C)C)C(=O)[C@H](NC(=O)Nc2cccc(C)c2)C1 |
| 610 nM | Cc1cccc(NC(=O)N[C@@H]2C[C@H](c3ccccc3C)C[C@H](c3ccccc3)N(CC(=O)NC(C)(C)C)C2=O)c1 (stereo in doubt; (+)-10i) |
